Structures are written as SMILES. pKi: −log10 of the molar value. Structures can show the parent of a compound that is named as a salt.

Test [1] deals with T1, human adenosine A1 receptor (Homo sapiens, UniProt P30542).
T1 construct: expressed in transfected cells; host or cells: CHO-K1 cells with a cAMP inducible beta-galactosidase reporter gene
T1 sequence (P30542 1-326): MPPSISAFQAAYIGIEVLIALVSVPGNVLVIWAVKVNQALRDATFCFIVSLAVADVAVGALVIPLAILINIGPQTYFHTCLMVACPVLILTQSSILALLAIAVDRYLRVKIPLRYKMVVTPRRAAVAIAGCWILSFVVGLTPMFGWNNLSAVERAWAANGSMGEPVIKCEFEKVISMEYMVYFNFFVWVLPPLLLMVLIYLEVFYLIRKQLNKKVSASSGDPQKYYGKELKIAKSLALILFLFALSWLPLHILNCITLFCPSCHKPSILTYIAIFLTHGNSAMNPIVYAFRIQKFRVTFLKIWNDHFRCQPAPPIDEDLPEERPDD
As to the kind of experiment: Adenosine A1 Receptor Functional Assay (A1GAL2). The format is cell-based. To be noted: CHO-K1 cells overexpressing human A1 receptor, cAMP inducible beta-galactosidase reporter, 4 nM r-PIA/1 uM Forskolin agonist challenge. As for the experimental part:
Adenosine A1 Receptor Functional Assay (A1GAL2)
(§1) To initiate the functional assay, cryopreserved CHO—K1 cells overexpressing the human adenosine A1 receptor and containing a cAMP inducible beta-galactosidase reporter gene were thawed, centrifuged, DMSO containing media removed, and then seeded with fresh culture media into clear 384-well tissue culture treated plates (BD #353961) at a concentration of 10K cells/well. Prior to assay, these plates were cultured for two days at 37° C., 5% CO2, 90% Rh. On the day of the functional assay, culture media was removed and replaced with 45 uL assay medium (Hams/F-12 Modified (Mediatech #10-080CV) supplemented w/0.1% BSA). Test compounds were diluted and 11 point curves created at a 1000× concentration in 100% DMSO. Immediately after addition of assay media to the cell plates, 50 nL of the appropriate test compound antagonist or agonist control curves were added to cell plates using a Cartesian Hummingbird. Compound curves were allowed to incubate at room temperature on cell plates for approximately 15 minutes before addition of a 4 nM r-PIA (Sigma P4532)/1 uM Forskolin (Sigma F3917) agonist challenge (5 uL volume). A control curve of r-PIA in 1 uM Forskolin, a DMSO/Media control, and a single dose of Forskolin were also included on each plate. After additions, cell plates were allowed to incubate at 37° C., 5% CO2, 90% Rh for 5.5-6 hours. After incubation, media was removed, and cell plates were washed 1× 50 uL with DPBS w/o Ca & Mg (Mediatech 21-031-CV). Into dry wells, 20 uL of 1× Reporter Lysis Buffer (Promega E3971 (diluted in dH2O from 5× stock)) was added to each well and plates frozen at −20° C. overnight. For β-galactosidase enzyme calorimetric assay, plates were thawed out at room temperature and 20 μL 2× assay buffer (Promega) was added to each well. Color was allowed to develop at 37° C., 5% CO2, 90% Rh for 1-1.5 h or until reasonable signal appeared. The calorimetric reaction was stopped with the addition of 60 μL/well 1M sodium carbonate. Plates were counted at 405 nm on a SpectraMax Microplate Reader (Molecular Devices). Data was analyzed in Microsoft Excel and IC/EC50 curves were fit using a standardized macro.

For test [2], the target named is T2, human adenosine A2a receptor (Homo sapiens, UniProt P29274).
T2 construct: expressed in transfected cells; host or cells: CHO-K1 cells with a cAMP inducible beta-galactosidase reporter gene
Briefly: Adenosine A2a Receptor Functional Assay (A2AGAL2). To be noted: CHO-K1 cells overexpressing human A2a receptor, cAMP inducible beta-galactosidase reporter, 15 nM NECA agonist challenge. The format is cell-based. As for the experimental part: Adenosine A2a Receptor Functional Assay (A2AGAL2)
as §1, with “adenosine A2a” for “adenosine A1”, “a 15” for “a 4”, “nM NECA” for “nM r-PIA”, “(Sigma E2387)” for “(Sigma P4532)/1 uM Forskolin (Sigma F3917)”, “of NECA,” for “of r-PIA in 1 uM Forskolin,”, “Forskolin (Sigma F3917)” for “Forskolin”

T2 sequence (P29274 whole entry): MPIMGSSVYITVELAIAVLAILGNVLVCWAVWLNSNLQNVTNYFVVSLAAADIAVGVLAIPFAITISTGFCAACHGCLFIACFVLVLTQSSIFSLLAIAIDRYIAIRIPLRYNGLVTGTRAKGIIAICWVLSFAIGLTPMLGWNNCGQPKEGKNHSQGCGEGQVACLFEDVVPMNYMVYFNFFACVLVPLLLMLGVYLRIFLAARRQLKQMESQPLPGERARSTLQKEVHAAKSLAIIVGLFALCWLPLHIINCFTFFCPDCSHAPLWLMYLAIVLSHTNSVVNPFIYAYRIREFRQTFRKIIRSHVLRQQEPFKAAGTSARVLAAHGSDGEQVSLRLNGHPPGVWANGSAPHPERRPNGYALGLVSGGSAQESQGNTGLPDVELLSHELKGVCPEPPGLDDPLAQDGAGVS

For the molecule `CN(c1ccccc1)c1cc2c(N)nc(-c3cccc(C#N)c3)nc2s1` [Example 5, 3-[4-Amino-6-(methyl-phenyl-amino)-thieno[2,3-d]pyrimidin-2-yl]-benzonitrile], the pKi is 5.63 in test [1] and 6.90 in test [2].
For `N#Cc1cccc(-c2nc(N)c3cc(Nc4ccccc4F)sc3n2)c1` [Example 10, 3-[4-Amino-6-(2-fluoro-phenylamino)-thieno[2,3-d]pyrimidin-2-yl]-benzonitrile], in that order: 5.59 and 6.88.
For `N#Cc1cccc(-c2nc(N)c3cc(Nc4ccccc4)sc3n2)c1` [Example 1, (4-Amino-6-phenylamino-thieno[2,3-d]pyrimidin-2-yl)-benzonitrile], in that order: 5.94 and 7.05.
Turning to `COc1ccccc1N(C)c1cc2c(N)nc(-c3cccc(C#N)c3)nc2s1` [Example 3, 3-{4-Amino-6-[(2-methoxy-phenyl)-methyl-amino]-thieno[2,3-d]pyrimidin-2-yl}-benzonitrile], the values for the negative-log Ki (pKi) in test [1] and in test [2] were 6.24 and 6.99, respectively.
With `N#Cc1cccc(-c2nc(N)c3cc(S(=O)(=O)c4ccccc4)sc3n2)c1` [Example 12, 3-(4-Amino-6-benzenesulfonyl-thieno[2,3-d]pyrimidin-2-yl)-benzonitrile], the pKi was 6.45 in test [1] and 7.80 in test [2].
For `COc1cccc(Nc2cc3c(N)nc(-c4cccc(C#N)c4)nc3s2)c1` [Example 6, 3-[4-Amino-6-(3-methoxy-phenylamino)-thieno[2,3-d]pyrimidin-2-yl]-benzonitrile-hydrochloride] the same measures were 5.62 and 6.58.
For `COc1ccccc1Nc1cc2c(N)nc(-c3cccc(C#N)c3)nc2s1` [Example 2, 3-[4-Amino-6-(2-methoxy-phenylamino)-thieno[2,3-d]pyrimidin-2-yl]-benzonitrile] the same measures were 6.57 and 7.94.
Consider `COc1cccc(N(C)c2cc3c(N)nc(-c4cccc(C#N)c4)nc3s2)c1` [Example 9, 3-{4-Amino-6-[(3-methoxy-phenyl)-methyl-amino]-thieno[2,3-d]pyrimidin-2-yl}-benzonitrile-hydrochloride], for which the pKi is 5.60 in test [1] and 6.56 in test [2].
Regarding `N#Cc1cccc(-c2nc(N)c3cc(Nc4ccccc4Cl)sc3n2)c1` [Example 7, 3-[4-Amino-6-(2-chloro-phenylamino)-thieno[2,3-d]pyrimidin-2-yl]-benzonitrile-hydrochloride], the negative-log Ki (pKi) in test [1] was 5.64; in test [2], 6.64.
For `CN(c1cc2c(N)nc(-c3cccc(C#N)c3)nc2s1)c1ccccc1Cl` [Example 8, 3-{4-Amino-6-[(2-chloro-phenyl)-methyl-amino]-thieno[2,3-d]pyrimidin-2-yl}-benzonitrile], in that order: 5.56 and 6.50.
Regarding `CN(c1cccc(F)c1)c1cc2c(N)nc(-c3cccc(C#N)c3)nc2s1` [Example 11, 3-{4-Amino-6-[(3-fluoro-phenyl)-methyl-amino]-thieno[2,3-d]pyrimidin-2-yl}-benzonitrile], the values for the negative logarithm of the Ki (pKi) in test [1] and in test [2] were 5.28 and 6.40, respectively.
For `N#Cc1cccc(-c2nc(N)c3cc(Nc4ccccn4)sc3n2)c1` [Example 4, 3-[4-Amino-6-(pyridin-2-ylamino)-thieno[2,3-d]pyrimidin-2-yl]-benzonitrile], in that order: 6.12 and 7.07.

The record behind these values is patent US20100093764A1, “AMINES AND SULFOXIDES OF THIENO[2,3-d]PYRIMIDINE AND THEIR USE AS ADENOSINE A2a RECEPTOR ANTAGONISTS” (priority 2008, published 2010).
